What was measured:
KAT6A = target: T1, KAT6A (Homo sapiens, UniProt Q92794); test: Enzymatic activity assay for KAT6A acetyltransferase (TR-FRET, acetylation of histone substrate H3); assay type: biochemical
T1 construct: purchased active motife (Active Motif) 81223
Summary of the method: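 TR-FRET detection of biotinylated H3 acetylation by KAT6A with acetyl-CoA; compounds in 10-point 3-fold dilution (0.5% DMSO final) preincubated with enzyme 10 min at 25 °C, then 90 min reaction and 60 min Eu-antibody/ULight-SA detection at 25 °C. HTRF 665/615 ratio normalised to DMSO (0%) and top-dose control (100%); IC50 by nonlinear fit.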

hERG channel = target: T2, hERG channel (Homo sapiens, UniProt Q12809); test: hERG channel assay (manual patch clamp); assay type: cell-based; settings: HEK-293 cell line stably expressing the hERG channel, room temperature
T2 construct: expressed in transfected cells; host or cells: HEK-293
T2 sequence (Q12809 whole entry): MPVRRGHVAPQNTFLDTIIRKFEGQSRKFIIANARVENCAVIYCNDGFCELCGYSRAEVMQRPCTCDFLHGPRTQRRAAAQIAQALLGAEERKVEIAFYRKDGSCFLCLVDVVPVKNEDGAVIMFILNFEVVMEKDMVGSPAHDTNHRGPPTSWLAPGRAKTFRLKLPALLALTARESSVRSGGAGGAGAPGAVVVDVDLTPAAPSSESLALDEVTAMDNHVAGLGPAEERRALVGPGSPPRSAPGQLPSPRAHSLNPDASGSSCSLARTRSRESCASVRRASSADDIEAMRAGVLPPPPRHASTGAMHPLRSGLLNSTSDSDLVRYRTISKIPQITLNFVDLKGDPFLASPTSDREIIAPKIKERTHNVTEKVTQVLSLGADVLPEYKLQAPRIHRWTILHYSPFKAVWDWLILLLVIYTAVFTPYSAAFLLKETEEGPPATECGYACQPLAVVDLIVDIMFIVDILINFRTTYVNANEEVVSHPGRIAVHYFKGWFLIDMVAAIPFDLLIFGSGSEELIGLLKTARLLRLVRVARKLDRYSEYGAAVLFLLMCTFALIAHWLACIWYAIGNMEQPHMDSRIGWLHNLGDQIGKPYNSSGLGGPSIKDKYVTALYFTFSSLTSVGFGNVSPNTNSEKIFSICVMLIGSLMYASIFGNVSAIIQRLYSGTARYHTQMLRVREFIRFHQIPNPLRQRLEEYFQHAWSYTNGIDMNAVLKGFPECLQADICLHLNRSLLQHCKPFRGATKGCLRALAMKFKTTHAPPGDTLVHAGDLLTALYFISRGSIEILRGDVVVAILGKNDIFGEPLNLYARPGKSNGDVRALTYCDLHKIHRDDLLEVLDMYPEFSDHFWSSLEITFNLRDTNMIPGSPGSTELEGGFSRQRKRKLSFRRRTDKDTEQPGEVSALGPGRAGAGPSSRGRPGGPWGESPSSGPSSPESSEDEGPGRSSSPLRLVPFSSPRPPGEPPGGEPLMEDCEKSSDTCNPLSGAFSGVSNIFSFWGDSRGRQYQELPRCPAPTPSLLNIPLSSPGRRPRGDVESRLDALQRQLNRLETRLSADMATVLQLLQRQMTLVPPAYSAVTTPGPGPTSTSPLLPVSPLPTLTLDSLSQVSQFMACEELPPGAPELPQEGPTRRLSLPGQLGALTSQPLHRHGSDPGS
Description: 1.1 Test methods: This experiment adopted a manual patch clamp technology to detect the blocking effect of the compounds on electric current in the HEK-293 cell line stably expressing the hERG channel, and the risk of the compounds on the inhibitory effect on the cardiac hERG potassium channel was evaluated by fitting a concentration-effect relationship.
1.2 Experimental procedures: The patch clamp operation was performed as follows: Firstly, a capillary glass tube was drawn into a recording electrode with a microelectrode drawing instrument. An electrode filled with the intracellular fluid was mounted on the microelectrode holder. Under an inverted microscope, a microelectrode manipulator was used to immerse the electrode in the extracellular fluid, and the electrode resistance (Rpip) was recorded. The electrode was then slowly brought into contact with the cell surface, and negative pressure was applied to form a GΩ seal. At this time, fast capacitance compensation was performed, and the application of negative pressure was continued to break the cell membrane, forming a whole-cell recording mode. Finally, slow capacitance compensation was performed, and experimental parameters such as series resistance (Rs) were recorded. No current leakage compensation was provided. Administration was started when the hERG current of the whole-cell record was stable. Each drug concentration was maintained for about 5 min (or until the current was stable) for action before the next concentration was measured. Multiple concentrations were measured for each test compound. The coverslip with cells applied thereon was placed in the recording chamber under the inverted microscope. Gravity perfusion was used to flow the blank control extracellular fluid and the working solutions of the test compounds sequentially from low to high concentrations over the cells in the recording chamber. A peristaltic pump was used for liquid exchange during recording. For each cell, the current detected in the compound-free extracellular fluid was used as its own control group. The test was independently repeated three times for each concentration. All electrophysiological experiments were performed at room temperature.
Data processing: First, the tail current (Peak tail currentcompound) after the action of each drug concentration was standardized with the tail current of the blank control (Peak tail currentcontrol), and then the inhibition rate corresponding to each drug concentration was calculated ( 1−(Peak tail currentcompound)/(Peak tail currentcontrol) [formula] ). Subsequently, the mean, standard deviation (SD), and standard error (SE) were calculated for the inhibition rate corresponding to each concentration. The data were represented by Mean ± SE. IC50 value calculation of the compounds and dose-effect curve fitting were performed using the GraphPad Prism software. The data obtained are shown in Table 12: Table 12. hERG channel assay results

[1] = In-vivo pharmacokinetic study in rats; set-up: species or system SD female rats; settings: rat, plasma, po, intragastric administration, 5 mg/kg
Description: 1.1 Instrument: high-performance liquid chromatograph: SHIMADZU LC-30AD; mass spectrum: AB SCIEX mass spectrometer Triple Quad 5500; all measured data were calculated and processed using Microsoft Excel, and relevant pharmacokinetic parameters were calculated using WinNonlin software. The main obtained kinetic parameters are Tmax, T1/2, Cmax, AUC0-24 h, and AUCinf. […] Sample injection amount: 1 µL.
1.2 Animals: three SD female rats were used. The body weight range was 180-300 g. After purchase, the rats were bred in the experimental animal center for two days for later use. The rats were fasted 12 h before administration and 4 h after administration, and given ad libitum access to water during the assay. Blood samples were taken at predetermined time points after intragastric administration.
1.3 Vehicle: 0.5% HPMC (hydroxypropyl methylcellulose) + 0.4% Tween80 + 99.1% water. Preparation of intragastric administration solution: The compound was precisely weighed, the vehicle was added, and then the drug was completely dissolved by ultrasonication at room temperature for 5 min and prepared into a 0.5 mg/mL solution. After the intragastric administration, blood samples were taken at 0.083 h, 0.25 h, 0.5 h, 1.0 h, 2.0 h, 4.0 h, 7.0 h, and 24 h. The blood collection mode is as follows: 0.2 mL of the jugular vein blood was collected, EDTA-K2 was used as an anticoagulation agent, the collected blood sample was transferred into a microcentrifuge tube containing the anticoagulation agent, and the tube was centrifuged at 4 °C and 4000 g for 5 min to separate the plasma. All plasma samples collected were stored at -75±15 °C until analysis.
The compound was precisely weighed and prepared into a standard curve working solution and a quality control working solution at different concentrations. The blank plasma was added and prepared into a plasma standard curve and a quality control sample. LC/MS/MS analysis was performed after pretreatment using a protein precipitation method, and then the concentration of the compounds described above in the plasma was measured. All measured data were collected and processed by the relevant software, and pharmacokinetic parameters were calculated using Winnonlin software. Table 9. Pharmacokinetic parameters of some compounds in the examples in rats

T1 sequence (Q92794 whole entry): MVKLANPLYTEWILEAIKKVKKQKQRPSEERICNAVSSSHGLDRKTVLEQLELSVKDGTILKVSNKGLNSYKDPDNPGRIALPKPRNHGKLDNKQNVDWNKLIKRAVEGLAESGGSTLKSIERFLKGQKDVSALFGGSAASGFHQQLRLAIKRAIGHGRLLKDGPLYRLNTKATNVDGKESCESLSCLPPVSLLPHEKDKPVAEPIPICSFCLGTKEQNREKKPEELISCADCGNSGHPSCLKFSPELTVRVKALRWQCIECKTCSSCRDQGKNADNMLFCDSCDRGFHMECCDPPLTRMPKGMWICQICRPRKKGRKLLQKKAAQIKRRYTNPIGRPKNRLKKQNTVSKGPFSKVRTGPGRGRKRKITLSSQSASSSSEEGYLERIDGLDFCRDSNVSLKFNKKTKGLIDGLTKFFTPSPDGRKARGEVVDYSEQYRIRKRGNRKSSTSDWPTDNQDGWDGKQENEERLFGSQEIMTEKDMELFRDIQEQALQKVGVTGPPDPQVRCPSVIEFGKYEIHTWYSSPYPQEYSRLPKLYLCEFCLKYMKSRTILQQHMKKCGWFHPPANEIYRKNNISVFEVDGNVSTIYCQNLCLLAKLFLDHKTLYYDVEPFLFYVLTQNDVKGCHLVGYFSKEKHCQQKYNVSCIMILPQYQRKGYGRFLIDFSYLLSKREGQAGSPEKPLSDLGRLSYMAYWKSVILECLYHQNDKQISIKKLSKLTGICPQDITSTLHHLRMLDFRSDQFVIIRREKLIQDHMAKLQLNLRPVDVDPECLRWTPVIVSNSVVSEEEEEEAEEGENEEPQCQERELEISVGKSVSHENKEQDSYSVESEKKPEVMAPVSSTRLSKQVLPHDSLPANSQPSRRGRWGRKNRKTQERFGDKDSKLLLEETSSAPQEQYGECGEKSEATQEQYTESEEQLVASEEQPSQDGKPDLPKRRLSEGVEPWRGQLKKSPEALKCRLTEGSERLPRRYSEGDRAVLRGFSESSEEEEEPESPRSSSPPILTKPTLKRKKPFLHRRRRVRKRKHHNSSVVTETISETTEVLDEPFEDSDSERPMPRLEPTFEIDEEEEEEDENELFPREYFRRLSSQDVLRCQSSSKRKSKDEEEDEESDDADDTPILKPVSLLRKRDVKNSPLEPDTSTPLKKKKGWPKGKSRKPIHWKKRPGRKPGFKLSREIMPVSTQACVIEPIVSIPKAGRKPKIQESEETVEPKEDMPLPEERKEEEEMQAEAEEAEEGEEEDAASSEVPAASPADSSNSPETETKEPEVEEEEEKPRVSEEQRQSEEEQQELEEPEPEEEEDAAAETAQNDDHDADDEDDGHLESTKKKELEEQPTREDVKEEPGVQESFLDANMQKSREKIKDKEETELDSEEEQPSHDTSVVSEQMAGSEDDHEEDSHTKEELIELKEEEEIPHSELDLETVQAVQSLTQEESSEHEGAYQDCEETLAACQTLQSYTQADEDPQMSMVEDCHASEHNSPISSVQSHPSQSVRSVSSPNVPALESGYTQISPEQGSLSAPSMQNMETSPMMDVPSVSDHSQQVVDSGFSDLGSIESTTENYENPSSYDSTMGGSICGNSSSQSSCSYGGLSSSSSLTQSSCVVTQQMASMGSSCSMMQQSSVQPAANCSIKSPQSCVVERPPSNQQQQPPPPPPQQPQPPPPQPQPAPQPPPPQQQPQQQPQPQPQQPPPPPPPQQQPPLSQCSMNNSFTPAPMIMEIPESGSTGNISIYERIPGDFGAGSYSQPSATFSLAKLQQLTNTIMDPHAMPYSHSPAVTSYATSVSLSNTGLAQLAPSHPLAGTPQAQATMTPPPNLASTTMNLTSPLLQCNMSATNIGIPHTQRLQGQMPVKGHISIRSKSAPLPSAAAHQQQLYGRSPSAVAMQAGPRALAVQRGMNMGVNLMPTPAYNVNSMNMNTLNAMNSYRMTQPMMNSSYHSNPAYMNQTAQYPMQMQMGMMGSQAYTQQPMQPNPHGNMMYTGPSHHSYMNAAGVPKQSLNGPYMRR

| SMILES | IC50 (KAT6A) [nM] | IC50 (hERG channel) [nM] | AUC(0-inf) ([1]; female, SD) [ng·h/mL] | Cmax ([1]; female, SD) [ng/mL] | Tmax ([1]; female, SD) [h] | AUC(0-t) ([1]; female, SD, read-out: AUC0-24h) [ng·h/mL] | half-life ([1]; female, SD) [h] | AUC(0-inf) [1] [ng·h/mL] | Cmax [1] [ng/mL] | Tmax [1] [h] | AUC(0-t) at 24 h ([1]; read-out: AUC0-24h) [ng·h/mL] |
| --- | --- | --- | --- | --- | --- | --- | --- | --- | --- | --- | --- |
| COc1ccc2ccoc2c1S(=O)(=O)Nc1noc2cc(Cn3cccn3)nc(OC)c12 [Example 10, N-(6-((1H-Pyrazol-1-yl)methyl)-4-methoxyisoxazolo[4,5-c]pyridin-3-yl)-6-methoxybenzofuran-7-sulfonamide] | 0.38 | > 30000 | 74300 | 10500 | 0.5 | 72300 |  |  |  |  |  |
| COc1cc2c(cc1S(=O)(=O)Nc1noc3cc(Cn4cccn4)nc(OC)c13)CCCC2 [Example 2, N-(6-((1H-Pyrazol-1-yl)methyl)-4-methoxyisoxazolo[4,5-c]pyridin-3-yl)-3-methoxy-5,6,7,8-tetrahydronaphthalene-2-sulfonamide] | 0.72 | > 30000 | 71500 | 4410 | 6 | 64800 | ≤ 10 |  |  |  |  |
| COc1ccc2c(c1S(=O)(=O)Nc1noc3cc(Cn4cccn4)nc(OC)c13)OCC2 [Example 9, N-(6-((1H-Pyrazol-1-yl)methyl)-4-methoxyisoxazolo[4,5-c]pyridin-3-yl)-6-methoxy-2,3-dihydrobenzofuran-7-sulfonamide] | 0.92 | > 30000 | 215000 | 22500 | 1.83 | 215000 |  |  |  |  |  |
| COc1cc2c(cc1S(=O)(=O)Nc1noc3cc(Cn4cccn4)nc(OC)c13)OCC2 [Example 59, N-(6-((1H-Pyrazol-1-yl)methyl)-4-methoxyisoxazolo[4,5-c]pyridin-3-yl)-5-methoxy-2,3-dihydrobenzofuran-6-sulfonamide] | 0.95 | > 30000 | 167000 | 16500 | 1.17 | 166000 |  |  |  |  |  |
| COc1cc2c(cc1S(=O)(=O)Nc1noc3cc(Cn4cccn4)nc(OC)c13)CCCO2 [Example 76, N-(6-((1H-Pyrazol-1-yl)methyl)-4-methoxyisoxazolo[4,5-c]pyridin-3-yl)-7-methoxy-3,4-dihydro-1H-benzopyran-6-sulfonamide] | 1.05 |  |  |  |  |  |  | 162000 | 14400 | 2.33 | 158000 |
| COc1nc(Cn2cccn2)cc2onc(NS(=O)(=O)c3cccc4c3OCCO4)c12 [Example 4, N-(6-((1H-Pyrazol-1-yl)methyl)-4-methoxyisoxazolo[4,5-c]pyridin-3-yl)-2,3-dihydrobenzo[b][1,4]dioxine-5-sulfonamide] | 1.51 | > 30000 | 12000 | 5960 | 0.25 | 11800 |  |  |  |  |  |
| COc1nc(Cn2cccn2)cc2onc(NS(=O)(=O)c3cccc4ccoc34)c12 [Example 5, N-(6-((1H-Pyrazol-1-yl)methyl)-4-methoxyisoxazolo[4,5-c]pyridin-3-yl)benzofuran-7-sulfonamide] | 4.52 | > 30000 | 19700 | 5960 | 0.25 | 18500 | ≤ 10 |  |  |  |  |

— patent EP4692094A1 (Beijing Konruns Pharmaceutical Co., Ltd., priority 2023, dated 2024)
